Results: ChEMBL document CHEMBL1149750, “Drimane Sesquiterpene Lactones from Peniophora polygonia” (J Nat Prod, 1992)
The source made the active and inactive calls. No cut-off for these calls is given here.

Tested on: Phellinus tremulae
Experiment: Antifungal activity against Phellinus tremulae
Assay type: functional, organism-based

CC1(C)CCC[C@]2(C)[C@H]3COC(=O)[C@@]3(O)CC[C@@H]12
Activity: Active
